In US20240182481A1 (Tango Therapeutics, Inc., priority 2021, published 2024):
Like-named read-outs stand apart in the source and are kept apart here.

Legend:
[1] = molecular target: USP1-UAF1 (Homo sapiens, UniProt O94782); assay: Ubiquitin Rhodamine assay for USP1-UAF1 activity; format: biochemical
Experimental: Certain compounds of the disclosure were assessed for USP1-UAF1 activity in a Ubiquitin Rhodamine assay as described in Example 135.

[2] = test system: MDA-MB-436 (BRCA1 mutant) cell line; assay: Viability assay in BRCA1 mutant cell line MDA-MB-436; format: cell-based; details: Homo sapiens, BRCA1 mutant MDA-MB-436, read-out: MDA-MB-436 rel IC50
Source text: (§1) Table 1 also indicates IC50 values in a viability assay for a non-isogenic pair of BRCA1 mutant (column 5—MDA-MB-436) and BRCA1 WT (column 6—HCC1954) cell lines. These values indicate the effect of treatment with compound on cell survival.

[3] = test system: HCC1954 (BRCA1 WT) cell line; assay: Viability assay in BRCA1 WT cell line HCC1954; format: cell-based; details: for IC50: Homo sapiens, read-out: HCC 1954 IC50 rel IC50
Source text: as §1

[4] = test system: monoubiquitinated PCNA; assay: AlphaLISA assay measuring monoubiquitinated PCNA in MDA-MB-436; format: cell-based; details: Homo sapiens, read-out: Alpha LISA IC50
Source text: Table 1 also indicates IC50 values for exemplary compounds in an AlphaLISA assay measuring monoubiquitinated PCNA in a BRCA1 mutant cell line (MDA-MB-436; column 7).

Chain of USP1-UAF1 (O94782 whole entry): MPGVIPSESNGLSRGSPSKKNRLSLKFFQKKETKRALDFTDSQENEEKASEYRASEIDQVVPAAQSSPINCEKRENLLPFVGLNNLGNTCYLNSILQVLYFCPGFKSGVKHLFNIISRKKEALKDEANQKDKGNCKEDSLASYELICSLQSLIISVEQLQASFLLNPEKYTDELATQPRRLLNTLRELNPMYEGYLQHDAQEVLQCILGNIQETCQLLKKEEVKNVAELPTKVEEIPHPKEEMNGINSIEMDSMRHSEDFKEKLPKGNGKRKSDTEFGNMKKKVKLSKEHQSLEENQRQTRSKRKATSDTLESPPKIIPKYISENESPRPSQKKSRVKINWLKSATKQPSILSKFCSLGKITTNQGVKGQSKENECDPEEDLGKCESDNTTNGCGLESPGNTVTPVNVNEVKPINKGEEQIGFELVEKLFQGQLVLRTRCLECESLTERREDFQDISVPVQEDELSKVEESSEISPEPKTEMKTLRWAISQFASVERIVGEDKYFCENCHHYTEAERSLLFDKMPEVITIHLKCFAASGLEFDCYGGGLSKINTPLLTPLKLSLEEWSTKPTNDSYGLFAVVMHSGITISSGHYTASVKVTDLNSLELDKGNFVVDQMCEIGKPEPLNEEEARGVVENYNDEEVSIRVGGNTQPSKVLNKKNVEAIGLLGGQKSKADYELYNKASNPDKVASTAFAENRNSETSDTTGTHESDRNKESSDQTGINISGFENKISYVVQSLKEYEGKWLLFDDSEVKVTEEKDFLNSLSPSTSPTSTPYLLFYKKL
Chain of USP1-UAF1 (Q8TAF3 whole entry partner): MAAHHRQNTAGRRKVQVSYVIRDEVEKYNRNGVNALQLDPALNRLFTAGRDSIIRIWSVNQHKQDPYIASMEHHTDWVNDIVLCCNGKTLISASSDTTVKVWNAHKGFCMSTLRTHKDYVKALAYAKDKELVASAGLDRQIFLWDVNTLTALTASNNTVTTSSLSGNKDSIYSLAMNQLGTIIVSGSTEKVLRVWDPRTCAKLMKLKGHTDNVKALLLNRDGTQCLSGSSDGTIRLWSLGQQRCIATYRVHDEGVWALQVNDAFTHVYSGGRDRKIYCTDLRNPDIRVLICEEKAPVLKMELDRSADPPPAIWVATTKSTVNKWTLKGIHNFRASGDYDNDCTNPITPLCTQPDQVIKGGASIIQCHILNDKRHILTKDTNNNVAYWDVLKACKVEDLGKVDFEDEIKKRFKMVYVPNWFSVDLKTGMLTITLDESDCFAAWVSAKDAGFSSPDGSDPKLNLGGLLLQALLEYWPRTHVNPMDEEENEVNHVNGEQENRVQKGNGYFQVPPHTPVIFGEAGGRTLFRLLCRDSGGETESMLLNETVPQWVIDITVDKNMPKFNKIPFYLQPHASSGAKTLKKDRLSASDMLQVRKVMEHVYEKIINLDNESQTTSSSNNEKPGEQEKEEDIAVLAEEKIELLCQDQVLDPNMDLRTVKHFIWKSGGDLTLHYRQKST

Row | SMILES | IC50 [1] | IC50 ([2]; MDA-MB-436, viability) | IC50 [3] | IC50 [4] | HCC 1954 IC50 rel IC50 [3] | IC50 ([2]; viability)
1 | COc1ncnc(C2CC2)c1-c1ncc2[nH]nc(Cc3ccc(-c4nc(C(F)(F)F)cn4C)c(F)c3)c2n1 [Compound 90, 5-(4-cyclopropyl-6-methoxypyrimidin-5-yl)-3-(3-fluoro-4-(1-methyl-4-(trifluoromethyl)-1H-imidazol-2-yl)benzyl)-1H-pyrazolo[4,3-d]pyrimidine] | < 0.03 µM | < 0.1 µM | ≥ 10 µM | < 0.1 µM |  | 
2 | COc1ncnc(C2CC2)c1-c1ncc2c(n1)c(Cc1ccc(-c3nc(C(F)(F)F)cn3C)cc1)cn2C(C)C [Compound 91] | 0.1 to 10 µM | 0.1 to 0.25 µM | ≥ 10 µM | 0.1 to 0.25 µM |  | 
3 | CC(C)n1cc(C(F)(F)F)nc1-c1ccc(C(O)c2c[nH]c3cnc(-c4c(OC(F)F)ncnc4C4CC4)nc23)cc1 (centres unmarked) [Compound 92] | 0.03 to 0.1 µM | < 0.1 µM |  | < 0.1 µM | dd | 
4 | COc1ncnc(C2CC2)c1-c1ncc2c(n1)c(Cc1ccc(-c3nc(C(F)(F)F)cn3C)cc1)cn2C(C)=O [Compound 93, 1-[2-(4-cyclopropyl-6-methoxy-pyrimidin-5-yl)-7-[[4-[1-methyl-4-(trifluoromethyl)imidazol-2-yl]phenyl]methyl]pyrrolo[3,2-d]pyrimidin-5-yl]ethanone] | 0.03 to 0.1 µM |  | ≥ 10 µM | < 0.1 µM |  | < 0.1 µM
5 | COCc1[nH]c2cnc(-c3c(OC)ncnc3C3CC3)nc2c1Cc1ccc(-c2nc(C(F)(F)F)cn2C)cc1 [Compound 94, 2-(4-cyclopropyl-6-methoxy-pyrimidin-5-yl)-6-(methoxymethyl)-7-[[4-[1-methyl-4-(trifluoromethyl)imidazol-2-yl]phenyl]methyl]-5H-pyrrolo[3,2-d]pyrimidine] | < 0.03 µM | < 0.1 µM | ≥ 10 µM | < 0.1 µM |  | 
6 | COc1ncnc(C2CC2)c1-c1ncc2[nH]nc(Cc3ccc(-c4nc(C(F)(F)F)cn4C)c(C)c3)c2n1 [Compound 95, 5-(4-cyclopropyl-6-methoxy-pyrimidin-5-yl)-3-[[3-methyl-4-[1-methyl-4-(trifluoromethyl)imidazol-2-yl]phenyl]methyl]-1H-pyrazolo[4,3-d]pyrimidine] | < 0.03 µM | < 0.1 µM | ≥ 10 µM | < 0.1 µM |  | 
7 | COc1ncnc(C(C)(C)C)c1-c1ncc2c(n1)c(Cc1ccc(-c3nc(C(F)(F)F)cn3C)cc1)nn2C [Compound 96] | 0.03 to 0.1 µM | 0.1 to 0.25 µM | ≥ 10 µM | 0.1 to 0.25 µM |  | 
8 | [2H]C([2H])([2H])n1cc(C(F)(F)F)nc1-c1ccc(Cc2n[nH]c3cnc(-c4c(OC)ncnc4C4CC4)nc23)cc1 [Compound 97, 5-(4-cyclopropyl-6-methoxy-pyrimidin-5-yl)-3-[[4-[1-(trideuteriomethyl)-4-(trifluoromethyl)imidazol-2-yl]phenyl]methyl]-1H-pyrazolo[4,3-d]pyrimidine] | < 0.03 µM | < 0.1 µM | ≥ 10 µM | < 0.1 µM |  | 
9 | COc1ncnc(OC)c1-c1ncc2[nH]cc(Cc3ccc(-c4nc(C(F)(F)F)cn4C)cc3)c2n1 [Compound 100] | 0.03 to 0.1 µM | 0.1 to 0.25 µM | ≥ 10 µM | < 0.1 µM |  | 
10 | COc1ncnc(C2CC2)c1-c1ncc2nn(C(C)=O)c(Cc3ccc(-c4nc(C(F)(F)F)cn4C)cc3)c2n1 [Compound 101, 1-(5-(4-cyclopropyl-6-methoxypyrimidin-5-yl)-3-(4-(1-methyl-4-(trifluoromethyl)-1H-imidazol-2-yl)benzyl)-2H-pyrazolo[4,3-d]pyrimidin-2-yl)ethan-1-one] | 0.03 to 0.1 µM |  | ≥ 10 µM | < 0.1 µM |  | < 0.1 µM
11 | CC(C)Oc1ncnc(C2CC2)c1-c1ncc2[nH]nc(Cc3ccc(-c4nc(C(F)(F)F)cn4C)cc3)c2n1 [Compound 102] | < 0.03 µM | 0.1 to 0.25 µM | ≥ 10 µM | 0.1 to 0.25 µM |  | 
12 | COc1ncnc(C(C)C)c1-c1ncc2[nH]cc(Cc3ccc(-c4nc(C(F)(F)F)cn4C)cc3)c2n1 [Compound 105, 2-(4-isopropyl-6-methoxy-pyrimidin-5-yl)-7-[[4-[1-methyl-4-(trifluoromethyl)imidazol-2-yl]phenyl]methyl]-5H-pyrrolo[3,2-d]pyrimidine] | < 0.03 µM | < 0.1 µM | ≥ 10 µM | < 0.1 µM |  | 
13 | CCn1cc(C(F)(F)F)nc1-c1ccc(Cc2nn(C)c3cnc(-c4c(OC)ncnc4C4CC4)nc23)cc1 [Compound 106, 5-(4-cyclopropyl-6-methoxypyrimidin-5-yl)-3-(4-(1-ethyl-4-(trifluoromethyl)-1H-imidazol-2-yl)benzyl)-1-methyl-1H-pyrazolo[4,3-d]pyrimidine] | < 0.03 µM | < 0.1 µM | ≥ 10 µM | < 0.1 µM |  | 
14 | COc1ncnc(C2CC2)c1-c1ncc2c(n1)c(Cc1ccc(-n3nc(C#N)cc3C)cc1)cn2C [Compound 107, 1-[4-[[2-(4-cyclopropyl-6-methoxy-pyrimidin-5-yl)-5-methyl-pyrrolo[3,2-d]pyrimidin-7-yl]methyl]phenyl]-5-methyl-pyrazole-3-carbonitrile] | 0.03 to 0.1 µM | < 0.1 µM | ≥ 10 µM | < 0.1 µM |  | 
15 | COc1ncnc(C2CC2)c1-c1nc(F)c2[nH]cc(Cc3ccc(-c4nc(C(F)(F)F)cn4C)cc3)c2n1 [Compound 110] | < 0.03 µM | 0.1 to 0.25 µM | ≥ 10 µM | 0.25 to 10 µM |  | 
16 | CCOc1ncnc(C2CC2)c1-c1ncc2[nH]cc(Cc3ccc(-c4nc(C(F)(F)F)cn4C)cc3)c2n1 [Compound 111, 2-(4-cyclopropyl-6-ethoxy-pyrimidin-5-yl)-7-[[4-[1-methyl-4-(trifluoromethyl)imidazol-2-yl]phenyl]methyl]-5H-pyrrolo[3,2-d]pyrimidine] | 0.03 to 0.1 µM | < 0.1 µM | ≥ 10 µM | < 0.1 µM |  | 
17 | COc1ncnc(C2CC2)c1-c1ncc2[nH]cc(Cc3ccc(-c4nc(C(F)(F)F)cn4C)c(C)c3)c2n1 [Compound 113] | < 0.03 µM | < 0.1 µM | ≥ 10 µM | < 0.1 µM |  | 
18 | COc1ncnc(C2CC2)c1-c1nc(C(F)(F)F)c2[nH]nc(Cc3ccc(-c4nc(C(F)(F)F)cn4C)cc3)c2n1 [Compound 114, 5-(4-cyclopropyl-6-methoxy-pyrimidin-5-yl)-3-[[4-[1-methyl-4-(trifluoromethyl)imidazol-2-yl]phenyl]methyl]-7-(trifluoromethyl)-1H-pyrazolo[4,3-d]pyrimidine] | < 0.03 µM | < 0.1 µM | ≥ 10 µM | < 0.1 µM |  | 
19 | COc1ncnc(C2CC2)c1-c1nc(C)c2[nH]nc(Cc3ccc(-c4nc(C(F)(F)F)cn4C)cc3)c2n1 [Compound 115, 5-(4-cyclopropyl-6-methoxypyrimidin-5-yl)-7-methyl-3-(4-(1-methyl-4-(trifluoromethyl)-1H-imidazol-2-yl)benzyl)-1H-pyrazolo[4,3-d]pyrimidine] | < 0.03 µM | < 0.1 µM | ≥ 10 µM | < 0.1 µM |  | 
20 | COc1ccnc(C2CC2)c1-c1ncc2[nH]nc(Cc3ccc(-c4nc(C(F)(F)F)cn4C)cc3)c2n1 [Compound 116] | < 0.03 µM | < 0.1 µM | ≥ 10 µM | 0.1 to 0.25 µM |  | 
